Test results reported in the supplement of paper PMC10307832.

Legend:
Experiment in all cases: relative viability (nuclei count vs DMSO), 5 days (fraction); higher = more cells survive
[1] = system: LC-2-ad
Summary of the method: (§1)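 The day after seeding in 1536-well plates, lung cancer cell lines were treated by pin tool with a single drug, or with a fixed anchor-drug dose together with five library-drug doses (not always all listed) in √10 steps. After 5 days, a combined fix-and-stain solution (final 0.05% Triton X-100, 1% formaldehyde, 1 ug/ml Hoechst) was added. Nuclei counted on 4× images gave relative viability as treated counts over vehicle counts, reported as the median of duplicate plates.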

[2] = system: A-427
Summary of the method: as §1

[3] = system: NCI-H1944
Summary of the method: as §1

[4] = system: PC-3 [JPC-3]
Summary of the method: as §1

[5] = system: LCLC-97TM1
Summary of the method: as §1

[6] = system: NCI-H1915
Summary of the method: as §1

[7] = system: NCI-H441
Summary of the method: as §1

[8] = system: NCI-H661
Summary of the method: as §1

[9] = system: NCI-H460
Summary of the method: as §1

[10] = system: BEN
Summary of the method: as §1

[11] = system: NCI-H1650
Summary of the method: as §1

[12] = system: CAL-12T
Summary of the method: as §1

[13] = system: NCI-H2023
Summary of the method: as §1

[14] = system: NCI-H1651
Summary of the method: as §1

[15] = system: NCI-H650
Summary of the method: as §1

[16] = system: NCI-H520
Summary of the method: as §1

[17] = system: NCI-H2087
Summary of the method: as §1

[18] = system: NCI-H596
Summary of the method: as §1

[19] = system: 201T
Summary of the method: as §1

[20] = system: H3255
Summary of the method: as §1

## O=c1cc(-c2cccc3c2Sc2ccccc2S3)oc(N2CCOCC2)c1 + Nc1nc2[nH]cc(CCc3ccc(C(=O)N[C@@H](CCC(=O)O)C(=O)O)cc3)c2c(=O)[nH]1 [Pemetrexed] (partner 0.2 µM)
[1]; first compound 0.08 µM
  relative viability: 0.284
[1]; first compound 0.253 µM
  relative viability: 0.252
[1]; first compound 0.8 µM
  relative viability: 0.285
[1]; first compound 2.53 µM
  relative viability: 0.271
[1]; first compound 8 µM
  relative viability: 0.27
[2]; first compound 0.08 µM
  relative viability: 0.808
[2]; first compound 0.253 µM
  relative viability: 1
[2]; first compound 0.8 µM
  relative viability: 0.991
[2]; first compound 2.53 µM
  relative viability: 0.92
[2]; first compound 8 µM
  relative viability: 0.993
[3]; first compound 0.08 µM
  relative viability: 0.642
[3]; first compound 0.253 µM
  relative viability: 0.518
[3]; first compound 0.8 µM
  relative viability: 0.636
[3]; first compound 2.53 µM
  relative viability: 0.516
[3]; first compound 8 µM
  relative viability: 0.698
[4]; first compound 0.08 µM
  relative viability: 0.721
[4]; first compound 0.253 µM
  relative viability: 1.11
[4]; first compound 0.8 µM
  relative viability: 1.3
[4]; first compound 2.53 µM
  relative viability: 0.996
[4]; first compound 8 µM
  relative viability: 1.08
[5]; first compound 0.08 µM
  relative viability: 0.175
[5]; first compound 0.253 µM
  relative viability: 0.169
[5]; first compound 0.8 µM
  relative viability: 0.18
[5]; first compound 2.53 µM
  relative viability: 0.177
[5]; first compound 8 µM
  relative viability: 0.175
[6]; first compound 0.08 µM
  relative viability: 0.507
[6]; first compound 0.253 µM
  relative viability: 0.442
[6]; first compound 0.8 µM
  relative viability: 0.552
[6]; first compound 2.53 µM
  relative viability: 0.52
[6]; first compound 8 µM
  relative viability: 0.405
[7]; first compound 0.08 µM
  relative viability: 0.258
[7]; first compound 0.253 µM
  relative viability: 0.268
[7]; first compound 0.8 µM
  relative viability: 0.255
[7]; first compound 2.53 µM
  relative viability: 0.26
[7]; first compound 8 µM
  relative viability: 0.241
[8]; first compound 0.08 µM
  relative viability: 0.9
[8]; first compound 0.253 µM
  relative viability: 0.942
[8]; first compound 0.8 µM
  relative viability: 0.962
[8]; first compound 2.53 µM
  relative viability: 0.874
[8]; first compound 8 µM
  relative viability: 0.899
[9]; first compound 0.08 µM
  relative viability: 0.0549
[9]; first compound 0.253 µM
  relative viability: 0.0572
[9]; first compound 0.8 µM
  relative viability: 0.0622
[9]; first compound 2.53 µM
  relative viability: 0.0639
[9]; first compound 8 µM
  relative viability: 0.0685
[10]; first compound 0.08 µM
  relative viability: 0.72
[10]; first compound 0.253 µM
  relative viability: 0.834
[10]; first compound 0.8 µM
  relative viability: 0.696
[10]; first compound 2.53 µM
  relative viability: 0.801
[10]; first compound 8 µM
  relative viability: 1.07
[11]; first compound 0.08 µM
  relative viability: 0.362
[11]; first compound 0.253 µM
  relative viability: 0.366
[11]; first compound 0.8 µM
  relative viability: 0.407
[11]; first compound 2.53 µM
  relative viability: 0.415
[11]; first compound 8 µM
  relative viability: 0.36
[12]; first compound 0.08 µM
  relative viability: 1.25
[12]; first compound 0.253 µM
  relative viability: 1.39
[12]; first compound 0.8 µM
  relative viability: 1.18
[12]; first compound 2.53 µM
  relative viability: 1.04
[12]; first compound 8 µM
  relative viability: 1.03
[13]; first compound 0.08 µM
  relative viability: 0.222
[13]; first compound 0.253 µM
  relative viability: 0.3
[13]; first compound 0.8 µM
  relative viability: 0.198
[13]; first compound 2.53 µM
  relative viability: 0.213
[13]; first compound 8 µM
  relative viability: 0.221
[14]; first compound 0.08 µM
  relative viability: 0.563
[14]; first compound 0.253 µM
  relative viability: 0.636
[14]; first compound 0.8 µM
  relative viability: 0.604
[14]; first compound 2.53 µM
  relative viability: 0.589
[14]; first compound 8 µM
  relative viability: 0.603
[15]; first compound 0.08 µM
  relative viability: 0.917
[15]; first compound 0.253 µM
  relative viability: 0.964
[15]; first compound 0.8 µM
  relative viability: 0.878
[15]; first compound 2.53 µM
  relative viability: 0.74
[15]; first compound 8 µM
  relative viability: 0.866
[16]; first compound 0.08 µM
  relative viability: 0.634
[16]; first compound 0.253 µM
  relative viability: 0.835
[16]; first compound 0.8 µM
  relative viability: 0.739
[16]; first compound 2.53 µM
  relative viability: 0.717
[16]; first compound 8 µM
  relative viability: 0.69
[17]; first compound 0.08 µM
  relative viability: 0.669
[17]; first compound 0.253 µM
  relative viability: 0.662
[17]; first compound 0.8 µM
  relative viability: 0.726
[17]; first compound 2.53 µM
  relative viability: 0.649
[17]; first compound 8 µM
  relative viability: 0.674
[18]; first compound 0.08 µM
  relative viability: 0.422
[18]; first compound 0.253 µM
  relative viability: 0.52
[18]; first compound 0.8 µM
  relative viability: 0.536
[18]; first compound 2.53 µM
  relative viability: 0.543
[18]; first compound 8 µM
  relative viability: 0.478
[19]; first compound 0.08 µM
  relative viability: 0.302
[19]; first compound 0.253 µM
  relative viability: 0.353
[19]; first compound 0.8 µM
  relative viability: 0.37
[19]; first compound 2.53 µM
  relative viability: 0.287
[19]; first compound 8 µM
  relative viability: 0.302
[20]; first compound 0.08 µM
  relative viability: 0.474
[20]; first compound 0.253 µM
  relative viability: 0.547
[20]; first compound 0.8 µM
  relative viability: 0.533
[20]; first compound 2.53 µM
  relative viability: 0.552
[20]; first compound 8 µM
  relative viability: 0.56
